According to PMC12268261, “The aldehyde (ALD) locus controls C6-aldehyde production in kiwifruit and affects consumer perception of fruit aroma” (Plant Physiology, 2025):
Where two headings read alike, the source gives them in different places.

Assays:
[1] = target: T1, AcLOX4a-D1 (Actinidia chinensis, UniProt A0A2R6P8A4); assay: spectrophotometric, product formation at […] nm; type: biochemical; details: air-saturated 30 mM Tris-Cl, pH 7.5, read-out: Km-app /
T1 construct: gene CEY00_Acc32486; N-terminal HIS6-MBP fusion (pMAL-c6T), tag kept; E. coli BL21 (DE3) Codon Plus RIL
T1 sequence (A0A2R6P8A4 entry or part of it): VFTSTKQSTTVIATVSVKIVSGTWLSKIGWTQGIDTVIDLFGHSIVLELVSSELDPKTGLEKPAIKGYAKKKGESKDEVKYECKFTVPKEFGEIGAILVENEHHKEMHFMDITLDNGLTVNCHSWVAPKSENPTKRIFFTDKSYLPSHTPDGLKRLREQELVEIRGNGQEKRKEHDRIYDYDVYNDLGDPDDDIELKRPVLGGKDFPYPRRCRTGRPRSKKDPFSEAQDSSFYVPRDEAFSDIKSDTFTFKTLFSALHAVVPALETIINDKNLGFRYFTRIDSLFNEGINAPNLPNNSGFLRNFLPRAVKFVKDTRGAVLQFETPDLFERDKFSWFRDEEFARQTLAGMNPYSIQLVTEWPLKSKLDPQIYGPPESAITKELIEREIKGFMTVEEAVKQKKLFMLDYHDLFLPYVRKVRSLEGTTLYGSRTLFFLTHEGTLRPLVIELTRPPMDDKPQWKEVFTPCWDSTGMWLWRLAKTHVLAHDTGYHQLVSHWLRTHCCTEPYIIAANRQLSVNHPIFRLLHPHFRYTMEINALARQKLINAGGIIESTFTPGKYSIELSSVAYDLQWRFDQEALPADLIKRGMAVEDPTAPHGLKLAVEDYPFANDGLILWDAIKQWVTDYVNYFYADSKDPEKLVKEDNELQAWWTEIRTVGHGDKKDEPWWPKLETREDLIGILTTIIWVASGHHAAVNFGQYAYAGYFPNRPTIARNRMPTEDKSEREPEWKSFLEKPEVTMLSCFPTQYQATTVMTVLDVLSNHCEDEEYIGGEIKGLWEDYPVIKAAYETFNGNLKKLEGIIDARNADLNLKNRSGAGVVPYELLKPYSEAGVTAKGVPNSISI

[2] = target: T2, AcLOX4c-D1 (Actinidia chinensis, UniProt Z9ABF8LHO4); assay: spectrophotometric, product formation at […] nm; type: biochemical; details: air-saturated 30 mM Tris-Cl, pH 7.5; substrate inhibition at >50 µM; read-out: Km-app /
T2 construct: N-terminal HIS6-MBP fusion (pMAL-c6T), tag kept; E. coli BL21 (DE3) Codon Plus RIL
T2 sequence (Z9ABF8LHO4 57-898): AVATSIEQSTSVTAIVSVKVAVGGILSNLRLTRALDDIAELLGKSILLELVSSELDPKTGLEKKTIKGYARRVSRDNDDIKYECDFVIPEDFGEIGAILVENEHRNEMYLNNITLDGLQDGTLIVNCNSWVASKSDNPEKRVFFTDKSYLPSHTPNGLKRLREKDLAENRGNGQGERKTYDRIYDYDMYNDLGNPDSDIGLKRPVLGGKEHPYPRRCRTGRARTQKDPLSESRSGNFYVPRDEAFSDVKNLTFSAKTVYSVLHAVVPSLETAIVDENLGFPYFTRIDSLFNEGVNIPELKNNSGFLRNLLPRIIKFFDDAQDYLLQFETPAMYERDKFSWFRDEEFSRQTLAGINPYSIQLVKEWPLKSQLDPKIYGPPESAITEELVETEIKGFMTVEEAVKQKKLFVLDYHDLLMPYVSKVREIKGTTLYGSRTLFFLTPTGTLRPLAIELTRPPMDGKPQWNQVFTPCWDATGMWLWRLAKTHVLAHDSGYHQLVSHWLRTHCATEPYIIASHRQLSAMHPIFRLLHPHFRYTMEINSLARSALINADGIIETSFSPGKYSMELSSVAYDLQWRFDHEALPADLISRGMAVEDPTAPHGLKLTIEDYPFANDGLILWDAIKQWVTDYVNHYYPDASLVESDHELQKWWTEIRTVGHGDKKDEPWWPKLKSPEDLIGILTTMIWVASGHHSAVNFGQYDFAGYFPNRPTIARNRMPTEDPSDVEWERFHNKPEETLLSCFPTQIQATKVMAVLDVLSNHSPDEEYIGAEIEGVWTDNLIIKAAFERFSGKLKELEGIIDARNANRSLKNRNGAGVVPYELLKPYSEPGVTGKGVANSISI

| Km [1] | Km [2] | Km ([1]; substrate inhibition at >125 µM) | SMILES |
| --- | --- | --- | --- |
| 133 µM | – | – | CC/C=C\C/C=C\C/C=C\CCCCCCCC(=O)O [α-linolenic acid] |
| – | 59.2 µM | 193 µM | CCCCC/C=C\C/C=C\CCCCCCCC(=O)O [linoleic acid] |
